Source: PMC3735939, “The low levels of eicosapentaenoic acid in rat brain phospholipids are maintained via multiple redundant mechanisms” (Journal of Lipid Research, 2013)

What was measured:
Conditions in all cases: MEP vs vehicle
[1] = Brain total phospholipid and phospholipid class FA concentrations (GC-FID); format: in vivo, rat
Description: Total lipids from one brain hemisphere and from plasma were extracted by the method of Folch, Lees, and Sloane Stanley ([39]). Isolation of various neutral lipid and phospholipid classes from the total lipid extract was previously described by Chen, Liu, and Bazinet ([6]).
Brain FA concentrations from total and phospholipid classes were quantified as described by Chen, Liu, and Bazinet ([6]).

[2] = In vivo kinetics of FA incorporation and turnover in brain phospholipids (intravenous radiotracer infusion, kinetic model); set-up: species or system rat
Procedure: Twenty-four hours postsurgery, a second catheter (iv catheter 24 gauge/0.75 inch, Angiocath™; Becton Dickinson) was implanted into the tail vein where rats received either vehicle or 10 mg/kg of MEP. […] The radiotracers were infused for 5 min via the tail vein catheter at a rate of 0.223(1 + e^−19.2t) ml/min (t is infusion time in minutes) ([37]) which achieves a steady-state plasma radioactivity within 1 min ([18], [38]). […] During the 5 min infusion, blood samples were collected from the jugular vein at approximately 0, 0.25, 0.5, 0.75, 1.5, 3, 4, and 5 min while the unanesthetized rat was mobile in the infusion box with food and water. […] After 5 min, the rats were rapidly euthanized by head-focused high-energy microwave irradiation (13.5 kW for 1.6 s; Cober Electronics Inc., Stratford, CT). The radiotracer infusions continued until rats were euthanized. The brain was excised and cut sagittally. Both hemispheres were stored at −80°C for radioactive and biochemical analyses. Plasma was isolated from whole blood via microcentrifugation at 6,200 rpm (2,000 g) for 5 min and stored at −80°C.
The model for in vivo kinetics of brain FAs in rats has been previously described ([17], [18], [21], [23], [25], [37], [41]).
Because the infusion is 5 min, contributions of FA from de novo synthesis and esterified plasma FA are negligible ([18], [20], [23], [41]); thus only contributions from plasma unesterified FAs and acyl-CoA pools were considered in the calculation of λpalmitate, DHA, or EPA .

[3] = Brain acyl-CoA concentrations (LC-MS/MS) in vehicle- or MEP-treated rats; format: in vivo, rat
Procedure: At 15 weeks of age, 16 rats were randomized to receive vehicle or 10 mg/kg MEP via tail vein catheter as described above. Fifteen minutes post injection, rats were euthanized by head-focused high energy microwave irradiation (13.5 kW for 1.6 s) and brains were excised and sagittally cut for unesterified FAs/lipid mediators and acyl-CoA analyses as described below. Brain hemispheres were homogenized in ethanol to yield a concentration of 100 mg tissue/ml. The unesterified FAs from 100 mg of brain tissue were isolated. The unesterified FA bands were collected and extracted twice from silica by hexane:isopropanol (3:2 by volume) with 5.5% water. Extracted unesterified FAs were dried down with nitrogen gas and added with 100 μl of freshly made pentafluorobenzylbromide (PFB) cocktail consisting of acetonitrile:N,N-diisopropylethylamine:PFB (1 ml:100 μl:10 μl by volume). The mixtures were shaken for 15 min and dried down with nitrogen gas. FA-PFB esters (FAPEs) were reconstituted in 100 μl hexane for GC-MS analysis as described below.
Long chain acyl-CoA was extracted from the brains of vehicle- and MEP-treated rats as well as the brains of radiotracer-infused rats using a modified affinity chromatography method ([40]). Brains were homogenized by a probe sonicator in isopropanol:25 mM KH2PO4:acetonitrile (1:1:2 by volume) with 10 nmol of added internal standard, heptadecanoyl-CoA (17:0-CoA). Subsequently, protein was precipitated from the homogenate by the addition of saturated (NH4)2SO4. […]
Acyl-CoA concentrations were detected using an Agilent 1200 Binary LC pump (Agilent Technologies, Wilmington, DE) equipped with a Zorbax SB-Phenyl column (3 × 50 mm, 3.5 μm spherical size; Chromatographic Specialties, Brockville, ON, Canada). […] Peaks were identified and quantified by mass transitions, compound specific parameters, and standard curves of authentic acyl-CoA standards (Avanti, Alabaster, AL) (supplementary Fig. I). Concentrations were corrected for percent recovery of heptadecanoyl-CoA and expressed as nmol/g brain.

Compound: CCCCCCCCCCCCCCC1(C(=O)OC)CO1 (stereo not shown) [MEP, methyl-2-tetradecylglycidate, reference compound]
- reduction in ARA from PtdSer [1]: 8%
- reduction in linoleate from EtnGpl [1]: 9%
- fold increase in esterification of 14C-palmitate into diacylglycerol [2]: 2 fold
- fold increase in esterification of 14C-palmitate into triacylglycerol [2]: 2 fold
- fold increase of t1/2 of EPA in ChoGpl [2]: 1.7 fold
- fold increase of t1/2 of EPA-synthesized DHA in ChoGpl [2]: 4.3 fold
- fold increase of t1/2 of EPA-synthesized DHA in EtnGpl [2]: 2.5 fold
- fold increase of t1/2 of EPA-synthesized DHA in brain total phospholipids [2]: 4.2 fold
- fold increase of t1/2 of EPA-synthesized n-3 DPA in PtdSer [2]: 1.6 fold
- reduction of FFA of DHA in brain total phospholipids [2]: 24 % per day
- increase in brain α-linolenoyl-CoA concentration [3]: 49%
- reduction in brain DHA-CoA [3]: 26%
- reduction in brain EPA-CoA [3]: 16%
